Experimental findings from ChEMBL document CHEMBL1201862, “PubChem BioAssay data set” (2004) are described below.

Active and inactive are the calls of the source.

The target in one test is Beta-galactosidase (Escherichia coli, UniProt Q8VNN2). Nature of the test: PubChem AID 485352. It counts as functional.
The target of test [1] is Type-1 angiotensin II receptor (Homo sapiens, UniProt P30556). The experiment in a line: antagonism of angiotensin II type 1 receptor – cell-based, uHTS hits, selectivity assay for APJ receptor antagonist project, dose response (AID 463214).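 Note: antagonist potency against angiotensin II stimulated AT1 response.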 The test is classed as functional.
Chain of Type-1 angiotensin II receptor (P30556 whole entry): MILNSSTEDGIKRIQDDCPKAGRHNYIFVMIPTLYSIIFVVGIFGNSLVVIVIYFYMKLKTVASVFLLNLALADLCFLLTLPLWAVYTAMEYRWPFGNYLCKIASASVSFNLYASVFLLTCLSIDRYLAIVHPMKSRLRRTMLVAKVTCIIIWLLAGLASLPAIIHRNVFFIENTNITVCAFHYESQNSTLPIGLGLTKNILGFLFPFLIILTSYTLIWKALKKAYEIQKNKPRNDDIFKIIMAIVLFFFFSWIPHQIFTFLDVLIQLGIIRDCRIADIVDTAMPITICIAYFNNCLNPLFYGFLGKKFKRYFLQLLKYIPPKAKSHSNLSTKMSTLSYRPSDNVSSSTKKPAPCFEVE
Test [2] can be described thus: NIH-3T3 fibroblast cytotoxicity, dose response, cytotoxicity control, cell-based, fluorescence, Alamar Blue, secondary assay (AID 2327).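 Note: NIH-3T3 mouse fibroblasts cultured with fluconazole at 8 µg/mL.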 The test is classed as functional. (Resazurin is reduced to fluorescent resorufin, in cell work by metabolically active cells.)
In test [3] the test system is Streptococcus sp. 'group A'. The experiment in a line: Streptococcus pyogenes SK(-)GAS viability under kanamycin – luminescence, BacTiterGlo, confirmation, counter-screen for streptokinase expression inhibitor project, dose response (AID 1900). It counts as functional, organism-based. On the technique in general: A counterscreen serves to expose hits that act by an unwanted route or on another target.

The nature of test [4]: fluconazole-exposed Candida albicans growth modulators – fluorescence, retest, confirmation (AID 2467). It counts as functional, cell-based.
Test [5] addresses T1, Serine/threonine-protein phosphatase (Candida dubliniensis (strain CD36 / CBS 7987 / NCPF 3949 / NRRLY-17841) (Yeast), UniProt B9W6M3).
T1 sequence (B9W6M3 whole entry): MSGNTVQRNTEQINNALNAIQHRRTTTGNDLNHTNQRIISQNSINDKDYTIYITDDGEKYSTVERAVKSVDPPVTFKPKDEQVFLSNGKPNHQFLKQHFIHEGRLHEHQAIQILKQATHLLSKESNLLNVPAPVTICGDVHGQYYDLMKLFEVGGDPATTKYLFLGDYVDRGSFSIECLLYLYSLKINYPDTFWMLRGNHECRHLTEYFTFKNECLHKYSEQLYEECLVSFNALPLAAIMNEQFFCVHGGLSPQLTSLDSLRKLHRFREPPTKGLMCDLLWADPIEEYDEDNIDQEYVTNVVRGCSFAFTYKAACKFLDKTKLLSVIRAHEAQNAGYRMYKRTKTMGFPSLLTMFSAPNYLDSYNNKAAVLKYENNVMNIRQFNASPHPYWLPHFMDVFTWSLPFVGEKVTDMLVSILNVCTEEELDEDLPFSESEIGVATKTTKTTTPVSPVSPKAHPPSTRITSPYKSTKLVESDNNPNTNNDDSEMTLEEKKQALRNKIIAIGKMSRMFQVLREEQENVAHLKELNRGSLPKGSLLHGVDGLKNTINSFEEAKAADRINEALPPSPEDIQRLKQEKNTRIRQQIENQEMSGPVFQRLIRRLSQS
The experiment in a line: blockers of CaCl2-induced CDRE-lacZ signaling – S. cerevisiae, luminescence, secondary, dose response (AID 2388).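 Note: yeast reporter cells carrying a calcineurin-responsive lacZ construct stimulated with calcium chloride; luminescent beta-galactosidase reporter signal in whole cells rather than isolated phosphatase activity; potency for inhibition where a drop in reporter signal means calcineurin blockade.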 The test is classed as functional, cell-based.

For the next test, the system named is Streptococcus. Nature of the test: GAS UMAA2166 growth inhibition – luminescence, BacTiterGlo, counter-screen for streptokinase expression inhibitor project, dose response (AID 1915).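 Note: potency for reduction of bacterial viability or growth.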 It counts as functional, organism-based.
Test [6] in a line: THP-1 cell cytotoxicity, dose response, cytotoxicity control for non-replicating M. tuberculosis project (AID 489025). It counts as functional.
The nature of test [7]: HepG2 cell cytotoxicity, dose response, cytotoxicity control for non-replicating M. tuberculosis project (AID 489018). The test is classed as functional. The following applies: Mycobacterium tuberculosis.
Test [8] is described as follows: Vero E6 cell cytotoxicity, dose response, cytotoxicity control for non-replicating M. tuberculosis project, secondary assay (AID 492998). The following applies: Vero C1008. The test is classed as functional, VeroE6.
The nature of the next test: cells. The test is classed as functional.
The target of test [9] is ATP-dependent molecular chaperone HSP82 (Candida albicans (strain WO-1) (Yeast), UniProt C4YTQ8). The experiment in a line: steroid-induced GRE reporter decrease in yeast – S. cerevisiae, luminescence, Hsp90 inhibitor project, dose response (AID 2400).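 Note: beta-galactosidase luminescence from glucocorticoid response element reporter as proxy for Hsp90 function; inhibitor potency where signal loss means Hsp90 inhibition.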 The test is classed as functional, cell-based.
Chain of ATP-dependent molecular chaperone HSP82 (C4YTQ8 whole entry): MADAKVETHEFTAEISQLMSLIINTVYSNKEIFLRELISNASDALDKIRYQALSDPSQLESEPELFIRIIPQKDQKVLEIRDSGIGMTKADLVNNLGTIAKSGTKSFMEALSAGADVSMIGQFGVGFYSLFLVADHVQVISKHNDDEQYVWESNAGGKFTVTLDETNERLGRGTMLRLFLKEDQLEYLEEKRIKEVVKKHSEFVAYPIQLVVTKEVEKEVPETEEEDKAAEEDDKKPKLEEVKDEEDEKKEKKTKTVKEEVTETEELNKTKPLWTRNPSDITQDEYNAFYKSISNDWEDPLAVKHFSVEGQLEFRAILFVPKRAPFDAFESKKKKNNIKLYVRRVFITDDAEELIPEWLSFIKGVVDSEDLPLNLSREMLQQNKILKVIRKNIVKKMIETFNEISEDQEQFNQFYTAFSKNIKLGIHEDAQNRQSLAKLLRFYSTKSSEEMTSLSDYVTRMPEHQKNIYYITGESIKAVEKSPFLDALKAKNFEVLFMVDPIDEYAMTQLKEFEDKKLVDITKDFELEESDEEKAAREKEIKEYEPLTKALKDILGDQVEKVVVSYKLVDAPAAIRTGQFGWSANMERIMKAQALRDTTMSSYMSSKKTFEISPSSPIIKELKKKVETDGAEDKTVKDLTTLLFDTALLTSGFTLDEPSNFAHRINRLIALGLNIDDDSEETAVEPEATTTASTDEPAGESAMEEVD
For test [10], the system named is A-375. Nature of the test: MITF: Counter assay: A375 proliferation Measured in Cell-Based System Using Plate Reader - 2084-03_Inhibitor_Dose_DryPowder_Activity. [Related pubchem assays (depositor defined):AID488944]. The test is classed as functional. The following applies: Homo sapiens.
For test [11], the system named is A-375. Nature of the test: proliferation inhibition in MITF-low A375 cells – cell-based, cherry-pick samples, set 2, counter-screen for MITF modulator project, dose response (AID 540335). The test is classed as functional. The following applies: Homo sapiens.
Test [12] relates to HEK293. The experiment in a line: cells. The following applies: Homo sapiens.
In test [13] the test system is HEK293. The experiment in a line: cells. The following applies: Homo sapiens. This is another data set of the same source.
In test [14] the target is Heat shock protein HSP 90-alpha (Homo sapiens, UniProt P07900). It counts as functional, organism-based.
The nature of test [15]: luciferase reporter signal suppression in cells – H4 neuroglioma cells, luminescence, dose response (AID 1990). The test is classed as functional, cell-based.
The nature of test [16]: Luminescence Cell-Based Dose Response HTS to Identify Inhibitors of 5'UTR Stem-Loop Driven Prion Protein mRNA Translation in H4 Neuroglioblastoma Cells. [Related pubchem assays: 1827 (Project Summary), 1813 (Primary HTS)]. It counts as functional.
The nature of test [17]: alpha-synuclein stem-loop luciferase translation blockers – H4 neuroglioma cells, luminescence, confirmation (AID 1988). The test is classed as functional, cell-based.
The target of test [18] is T2, High affinity choline transporter 1 (Homo sapiens, UniProt Q9GZV3).
T2 sequence (Q9GZV3 whole entry): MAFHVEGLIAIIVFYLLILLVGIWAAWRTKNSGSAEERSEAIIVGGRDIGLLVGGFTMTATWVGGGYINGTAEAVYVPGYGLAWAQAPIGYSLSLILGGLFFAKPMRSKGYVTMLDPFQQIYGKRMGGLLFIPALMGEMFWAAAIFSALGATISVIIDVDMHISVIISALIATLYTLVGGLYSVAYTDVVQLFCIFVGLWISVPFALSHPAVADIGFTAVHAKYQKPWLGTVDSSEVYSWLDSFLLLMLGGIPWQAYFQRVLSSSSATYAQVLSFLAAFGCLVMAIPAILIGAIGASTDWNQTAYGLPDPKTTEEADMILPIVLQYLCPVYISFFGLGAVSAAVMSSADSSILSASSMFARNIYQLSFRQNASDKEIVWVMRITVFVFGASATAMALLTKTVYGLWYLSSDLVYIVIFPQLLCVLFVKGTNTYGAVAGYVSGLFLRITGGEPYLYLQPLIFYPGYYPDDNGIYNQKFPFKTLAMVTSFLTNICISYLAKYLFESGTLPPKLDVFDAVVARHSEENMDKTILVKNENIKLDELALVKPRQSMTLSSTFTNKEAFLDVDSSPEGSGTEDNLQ
Nature of the test: human choline transporter blockers, potency – cell-based, 5-point CRC, membrane potential dye, dose response (AID 504840). It counts as functional.

Chain of Beta-galactosidase (Q8VNN2 whole entry): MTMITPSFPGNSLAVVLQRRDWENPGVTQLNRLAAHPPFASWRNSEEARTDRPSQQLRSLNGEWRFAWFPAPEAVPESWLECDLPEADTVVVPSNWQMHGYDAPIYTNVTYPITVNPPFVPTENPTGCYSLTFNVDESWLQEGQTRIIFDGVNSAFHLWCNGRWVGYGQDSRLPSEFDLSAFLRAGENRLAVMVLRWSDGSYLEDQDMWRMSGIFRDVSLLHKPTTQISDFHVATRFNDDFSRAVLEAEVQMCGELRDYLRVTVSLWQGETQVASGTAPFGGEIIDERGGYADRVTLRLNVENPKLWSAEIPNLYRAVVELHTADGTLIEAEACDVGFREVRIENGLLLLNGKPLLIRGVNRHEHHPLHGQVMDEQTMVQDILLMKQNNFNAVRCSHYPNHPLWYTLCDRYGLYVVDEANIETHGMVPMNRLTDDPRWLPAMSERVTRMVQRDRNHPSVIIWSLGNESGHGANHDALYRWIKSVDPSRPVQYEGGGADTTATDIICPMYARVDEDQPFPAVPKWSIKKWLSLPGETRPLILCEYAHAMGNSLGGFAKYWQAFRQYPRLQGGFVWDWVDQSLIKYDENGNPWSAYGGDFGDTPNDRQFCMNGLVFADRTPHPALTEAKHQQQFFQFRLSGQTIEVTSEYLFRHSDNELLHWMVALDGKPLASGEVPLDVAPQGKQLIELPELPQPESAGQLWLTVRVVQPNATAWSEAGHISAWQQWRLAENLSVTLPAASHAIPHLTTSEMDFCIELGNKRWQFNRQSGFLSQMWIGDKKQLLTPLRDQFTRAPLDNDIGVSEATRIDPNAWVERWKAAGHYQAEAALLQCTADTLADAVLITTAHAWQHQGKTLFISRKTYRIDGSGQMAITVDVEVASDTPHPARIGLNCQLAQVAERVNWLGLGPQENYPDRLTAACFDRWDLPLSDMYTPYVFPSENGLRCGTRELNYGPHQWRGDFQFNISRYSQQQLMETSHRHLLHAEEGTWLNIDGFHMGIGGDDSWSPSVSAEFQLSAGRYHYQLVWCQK

For orientation: EC50 means the concentration that produces a half-maximal response. A word on the IC50: it is the concentration that gives 50% inhibition. Take `O=C(NNc1ncc(C(F)(F)F)cc1Cl)c1c(Cl)cccc1Cl`: on Beta-galactosidase, the EC50 was > 40 µM (inactive). In addition, in [1], the IC50 is given as > 40 µM (not active).

Broadly, the CC50 is the concentration that lowers cell viability or growth by half. In the case of `O=C(Nc1nnc(C2COc3ccccc3O2)o1)c1ccc(F)cc1` (configuration not stated), the EC50 is 25.4 µM (inconclusive) in test [2]; 0.98 µM (active) in test [3]; 0.968 µM (active) in [4]; > 180 µM (inactive) in test [5]; 11.4 µM (active) in the test on Streptococcus; > 150 µM (inactive) in test [9]. Moreover, the CC50 is 15.7 µM (active) in test [6], 19.9 µM (active) in test [7] and 11.4 µM (active) in [8]. The IC50 in the test “cells” is 1.49 µM (active).

As a reminder, the AC50 is the concentration at which the activity in the assay is half-maximal. For `Cc1ccc(SCc2cn3cc(Cl)ccc3n2)cc1`, the AC50 with A-375 [10] and in the test with A-375 [11] was > 35 µM (active) in each case.

For `CN(C)C(=S)N=c1ssc(=S)n1Cc1ccccc1`, the EC50 in the test with HEK293 [12] and in the test on HEK293 [13] was > 59.7 µM (inactive) throughout.

For the compound `O=C(C=Cc1ccccn1)c1ccccc1O`, in [14], the AC50 is 2.37 µM (active). In addition, the EC50 in the test on HEK293 [12] and with HEK293 [13] was > 59.6 µM (inactive) in each case.

Regarding `Cc1ccccc1C(=O)O/N=C/c1c(N2CCOCC2)n(C)c2ccccc12`, the EC50 was > 160 µM (inactive) in [2]; 0.455 µM (active) in test [15]; 11.8 µM (active) in test [16]; 4.88 µM (active) in test [17]; 0.212 µM (active) in [4]; > 180 µM (inactive) in test [5]. The EC50 in [9] was 23.7 µM (active). Further, the concentration for half-maximal inhibition (IC50) in test [18] was 21.6 µM (active).
